# Results published in patent publication US8575179B2, “Dihydropyrazolopyrimidinone derivatives” (MSD K.K., priority 2008, dated 2013).
# Experiments:
# Wee1 kinase = target: T1, Wee1 kinase (Homo sapiens, UniProt P30291); test: Wee1 kinase inhibitory effect (Pharmacological Test 1); type: biochemical; conditions: GST-tagged Wee1 kinase, Poly(Lys, Tyr) substrate, 10 μM ATP, 30° C. for 30 minutes
# T1 construct: made in house; host or cells: Sf9 insect cells (recombinant baculovirus)
# Excerpt: Pharmacological Test 1 (Wee1 Kinase Inhibitory Effect)
# A cDNA of Wee1 kinase with glutathione-S-transferase (GST) fused at the amino terminal thereof was inserted into a baculovirus expression vector to construct a recombinant baculovirus, with which cells of an insect cell line Sf9 were infected to overexpress the target protein. The infected cells were collected and lysed, and then the GST-tagged Wee1 kinase protein was adsorbed to a glutathione column and eluted from the column with glutathione, and the active fraction was desalted in a desalting column to give a purified enzyme.
# In measurement of the Wee1 kinase activity, a synthetic peptide, Poly(Lys, Tyr) hydrobromide (Lys:Tyr (4:1)) purchased from Sigma was used as the substrate.
# The amount of the reaction mixture was 21.1 μL; and the composition of the reaction buffer was 50 mM Tris-HCl buffer (pH 7.4)/10 mM magnesium chloride/1 mM dithiothreitol. The purified Wee1 kinase, 2.5 μg of the substrate peptide, 10 μM of non-labeled adenosine triphosphate (ATP) and 1 μCi of [γ-^33P]-labeled ATP (2500 Ci/mmol or more) were added to the reaction buffer, and the resulting mixture was incubated at 30° C. for 30 minutes. Thereafter, 10 μL of 350 mM phosphate buffer was added to the reaction system to stop the reaction. The substrate peptide was adsorbed on a P81 paper filter 96-well plate and the plate was washed several times with 130 mM phosphate buffer, and the radioactivity thereof was counted using a liquid scintillation counter. The [γ-^33P]-labeled ATP was purchased from Amersham Bioscience, Ltd.
# The addition of a test compound to the reaction system was carried out by preparing a series of dilutions of the compound with dimethyl sulfoxide (DMSO) and adding 1.1 μL of each dilution to the reaction system. As a control, 1.1 μL of DMSO was added to the reaction system.
# [1] = test system: Cdc2 (Cdk1) tyrosine-15 phosphorylation in NCI-H1299 cells; test: Inhibitory effect on Cdc2 (Cdk1) tyrosine-15 phosphorylation in cells (Pharmacological Test 2, ELISA); type: cell-based; conditions: Homo sapiens; NCI-H1299 cells pretreated with 200 nM camptothecin for 16 hours, test compound with nocodazole for 8 hours; ratio of tyrosine-15-phosphorylated Cdc2 to Cdc2
# Excerpt: Pharmacological Test 2 (Method for Determining Drug Effect Using Cells (Inhibitory Effect on Cdc2 (Cdk1) Tyrosine-15 Phosphorylation))
# Fetal bovine serum (FBS) was purchased from Morgate, Inc.; an RPMI-1640 medium and a DMEM medium were purchased from Invitrogen, Inc.; camptothecin was purchased from Sigma Co.; gemcitabine was purchased from Eli Lilly Japan K.K.; nocodazole and protease inhibitor cocktail were purchased from Sigma Co.; a rabbit anti-Cdc2 antibody and a mouse anti-Cdc2 antibody were purchased from Santa Cruz Biotechnology, Inc.; a rabbit anti-tyrosine-15-phosphorylated Cdc2 antibody and a horseradish peroxidase-labeled anti-mouse IgG antibody were purchased from Cell Signaling Technology, Inc.; and Sure Blue Reserve TMB peroxidase substrate was purchased from Kirkegaard & Perry Laboratories, Inc.
# A human non-small cell lung cancer cell line (NCI-H1299) and a human colon cancer cell line (WiDr) can be obtained from American Type Culture Collection (ATCC).
# In the method using NCI-H1299 cells, the cells were suspended in an RPMI-1640 medium supplemented with 10% FBS, and 100 μl, of the resulting cell suspension was dispensed in a Nunclon Delta treated 96-well plastic plate purchased from Nunc, Inc. at a density of 2000 cells per well, and the plate was incubated overnight at 37° C. under an atmosphere of 5% CO2 and 95% air. Camptothecin was dissolved in dimethyl sulfoxide (DMSO) and further the resulting solution was diluted with an RPMI-1640 medium supplemented with 10% FBS. Then, 50 μL of the diluted solution was added to each well of the plate in which the cells were seeded in advance such that the final concentration of camptothecin was 200 nM, and the plate was incubated at 37° C. under an atmosphere of 5% CO2 and 95% air for 16 hours. A test compound was serially diluted with DMSO, and further diluted with an RPMI-1640 medium supplemented with 10% FBS containing 4000 nM nocodazole. Then, 50 μL of the test compound solution was added to each well of the plate in which the cells treated with camptothecin were seeded, and the plate was incubated at 37° C. under an atmosphere of 5% CO2 and 95% air for 8 hours. Then, the culture medium was removed from each well and 100 μL of a cell lysis buffer was added to each well, and the plate was shaken at 4° C. for 2 hours, and thereafter the liquid in the plate was frozen at −80° C. and then thawed, which was used as a lysed cell solution. Cdc2 and tyrosine-15-phosphorylated Cdc2 in this lysed cell solution were measured by an enzyme-linked immunosorbent assay (ELISA method), and a ratio of tyrosine-15-phosphorylated Cdc2 to Cdc2 was calculated to determine a 50% effective concentration (EC50, nM) of the test compound for inhibition of phosphorylation in cells. […]
# T1 sequence (P30291 whole entry): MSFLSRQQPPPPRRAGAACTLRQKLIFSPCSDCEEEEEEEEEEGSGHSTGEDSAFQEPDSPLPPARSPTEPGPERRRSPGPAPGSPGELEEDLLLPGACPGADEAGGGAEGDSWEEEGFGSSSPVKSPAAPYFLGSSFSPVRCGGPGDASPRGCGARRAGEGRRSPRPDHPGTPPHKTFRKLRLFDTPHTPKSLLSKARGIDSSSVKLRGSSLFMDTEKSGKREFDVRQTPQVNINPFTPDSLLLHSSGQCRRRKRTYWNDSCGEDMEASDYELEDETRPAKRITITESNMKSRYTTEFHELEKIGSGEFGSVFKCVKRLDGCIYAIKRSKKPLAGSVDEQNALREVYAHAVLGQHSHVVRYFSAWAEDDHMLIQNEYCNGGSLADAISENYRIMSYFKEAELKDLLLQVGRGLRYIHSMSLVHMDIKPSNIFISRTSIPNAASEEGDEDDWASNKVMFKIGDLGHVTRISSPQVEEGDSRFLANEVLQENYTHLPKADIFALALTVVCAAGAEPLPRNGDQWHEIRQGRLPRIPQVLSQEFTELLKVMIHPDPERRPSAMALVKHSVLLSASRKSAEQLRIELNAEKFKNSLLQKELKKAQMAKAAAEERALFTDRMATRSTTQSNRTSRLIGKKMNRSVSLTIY
Structure (SMILES),IC50 (Wee1 kinase) [nM],IC50 [1] [nM]
"Cc1cc(Nc2ncc3c(=O)n(-c4c(Cl)cccc4Cl)c(=O)[nH]c3n2)ccc1N1CCN(C)CC1 [Example 1, 3-(2,6-dichlorophenyl)-7-{[3-methyl-4-(4-methylpiperazin-1-yl)phenyl]amino}pyrimido[4,5-d]pyrimidine-2,4(1H,3H)-dione]",7,87
"Cc1cc(Nc2ncc3c(=O)n(-c4c(C)cccc4Cl)c(=O)[nH]c3n2)ccc1N1CCN(C)CC1 [Example 2, 3-(2-chloro-6-methylphenyl)-7-{[3-methyl-4-(4-methylpiperazin-1-yl)phenyl]amino}pyrimido[4,5-d]pyrimidine-2,4(1H,3H)-dione]",9,79
"Cc1cc(Nc2ncc3c(=O)n(-c4c(Cl)cccc4Cl)c(=O)n(C)c3n2)ccc1N1CCN(C)CC1 [Example 3, 3-(2,6-dichlorophenyl)-1-methyl-7-{[3-methyl-4-(4-methylpiperazin-1-yl)phenyl]amino}pyrimido[4,5-d]pyrimidine-2,4(1H,3H)-dione]",8,45
"CN1CCN(c2ccc(Nc3ncc4c(=O)n(-c5c(Cl)cccc5Cl)c(=O)n(C)c4n3)cc2)CC1 [Example 4, 3-(2,6-dichlorophenyl)-1-methyl-7-{[4-(4-methylpiperazin-1-yl)phenyl]amino}pyrimido[4,5-d]pyrimidine-2,4(1H,3H)-dione]",33,33
"CC(=O)N1CCN(c2ccc(Nc3ncc4c(=O)n(-c5c(Cl)cccc5Cl)c(=O)[nH]c4n3)cc2C)CC1 [Example 9, 7-{[4-(4-acetylpiperazin-1-yl)-3-methylphenyl]amino}-3-(2,6-dichlorophenyl)pyrimido[4,5-d]pyrimidine-2,4(1H,3H)-dione]",4,–
"CN1CCCN(c2ccc(Nc3ncc4c(=O)n(-c5c(Cl)cccc5Cl)c(=O)[nH]c4n3)cc2)CC1 [Example 31, 3-(2,6-dichlorophenyl)-7-{[4-(4-methyl-1,4-diazepan-1-yl)phenyl]amino}pyrimido[4,5-d]pyrimidine-2,4(1H,3H)-dione]",4,–
"O=C(CO)N1CCN(c2ccc(Nc3ncc4c(=O)n(-c5c(Cl)cccc5Cl)c(=O)[nH]c4n3)cc2)CC1 [Example 32, 3-(2,6-dichlorophenyl)-7-({4-[4-(hydroxyacetyl)piperazin-1-yl]phenyl}amino)pyrimido[4,5-d]pyrimidine-2,4(1H,3H)-dione]",6,–
"COC(C)(C)C(=O)N1CCN(c2ccc(Nc3ncc4c(=O)n(-c5c(Cl)cccc5Cl)c(=O)[nH]c4n3)cc2)CC1 [Example 33, 3-(2,6-dichlorophenyl)-7-({4-[4-(2-methoxy-2-methylpropionyl)piperazin-1-yl]phenyl}amino)pyrimido[4,5-d]pyrimidine-2,4(1H,3H)-dione]",9,–
